ChEMBL document CHEMBL1153282, “N-substituted 2'-(aminoaryl)benzothiazoles as kinase inhibitors: hit identification and scaffold hopping” (Bioorg Med Chem Lett, 2009)

Key:
[1] = molecular target: Epidermal growth factor receptor (Homo sapiens, UniProt P00533); assay: Inhibition of EGFR by virtual HTS assay
[2] = molecular target: T1, Ephrin type-B receptor 4 (Homo sapiens, UniProt P54760); assay: Inhibition of EphB4 by virtual HTS assay
T1 sequence (P54760 whole entry): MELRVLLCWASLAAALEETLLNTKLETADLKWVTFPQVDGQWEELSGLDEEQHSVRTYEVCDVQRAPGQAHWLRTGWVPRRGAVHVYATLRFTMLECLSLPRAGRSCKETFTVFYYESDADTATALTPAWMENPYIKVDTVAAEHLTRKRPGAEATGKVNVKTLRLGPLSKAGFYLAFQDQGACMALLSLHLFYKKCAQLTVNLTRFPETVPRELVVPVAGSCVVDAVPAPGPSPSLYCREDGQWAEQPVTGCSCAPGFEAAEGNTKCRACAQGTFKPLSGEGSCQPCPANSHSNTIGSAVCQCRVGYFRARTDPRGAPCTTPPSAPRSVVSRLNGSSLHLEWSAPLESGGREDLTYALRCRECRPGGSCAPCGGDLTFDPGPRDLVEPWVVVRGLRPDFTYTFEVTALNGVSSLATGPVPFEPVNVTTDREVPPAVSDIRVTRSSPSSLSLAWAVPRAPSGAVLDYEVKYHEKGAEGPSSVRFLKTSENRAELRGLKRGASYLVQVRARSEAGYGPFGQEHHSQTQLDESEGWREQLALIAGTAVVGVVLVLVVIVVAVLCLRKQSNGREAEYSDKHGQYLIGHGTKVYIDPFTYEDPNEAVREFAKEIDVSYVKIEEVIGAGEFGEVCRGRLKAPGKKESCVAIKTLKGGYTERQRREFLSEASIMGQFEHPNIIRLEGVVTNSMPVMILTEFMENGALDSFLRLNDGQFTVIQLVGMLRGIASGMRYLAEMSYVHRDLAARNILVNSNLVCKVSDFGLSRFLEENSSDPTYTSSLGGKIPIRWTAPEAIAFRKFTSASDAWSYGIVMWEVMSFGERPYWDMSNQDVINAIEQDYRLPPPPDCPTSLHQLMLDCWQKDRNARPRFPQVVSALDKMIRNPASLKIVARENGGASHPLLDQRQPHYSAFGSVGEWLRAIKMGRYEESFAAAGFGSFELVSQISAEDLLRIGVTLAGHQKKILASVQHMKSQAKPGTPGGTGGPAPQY

[3] = molecular target: Insulin receptor (Homo sapiens, UniProt P06213); assay: Inhibition of insulin receptor by virtual HTS assay
[4] = molecular target: T2, Aurora kinase A (Homo sapiens, UniProt O14965); assay: Inhibition of Aurora A by virtual HTS assay
T2 sequence (O14965 whole entry): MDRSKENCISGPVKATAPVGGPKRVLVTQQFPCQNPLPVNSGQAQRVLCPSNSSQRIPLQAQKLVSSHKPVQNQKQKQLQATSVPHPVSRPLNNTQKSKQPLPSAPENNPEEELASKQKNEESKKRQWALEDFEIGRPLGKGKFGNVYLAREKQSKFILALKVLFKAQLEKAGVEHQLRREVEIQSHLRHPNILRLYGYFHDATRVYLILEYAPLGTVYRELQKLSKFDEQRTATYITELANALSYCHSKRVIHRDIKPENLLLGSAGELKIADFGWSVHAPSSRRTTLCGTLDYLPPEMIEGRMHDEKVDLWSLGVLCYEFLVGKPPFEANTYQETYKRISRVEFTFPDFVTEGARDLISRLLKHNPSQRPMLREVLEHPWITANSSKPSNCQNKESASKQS

[5] = molecular target: Proto-oncogene tyrosine-protein kinase Src (Homo sapiens, UniProt P12931); assay: Inhibition of Src by virtual HTS assay
[6] = molecular target: Aurora kinase B (Homo sapiens, UniProt Q96GD4); assay: Inhibition of Aurora B by virtual HTS assay
[7] = molecular target: Vascular endothelial growth factor receptor 2 (Homo sapiens, UniProt P35968); assay: Inhibition of VEGFR2 by virtual HTS assay
[8] = molecular target: Insulin-like growth factor 1 receptor (Homo sapiens, UniProt P08069); assay: Inhibition of IGF1R by virtual HTS assay
[9] = molecular target: Receptor tyrosine-protein kinase erbB-2 (Homo sapiens, UniProt P04626); assay: Inhibition of ErbB2 by virtual HTS assay
[10] = molecular target: Vascular endothelial growth factor receptor 3 (Homo sapiens, UniProt P35916)
Description: Inhibition of VEGFR3 by virtual HTS assay

[11] = molecular target: Angiopoietin-1 receptor (Homo sapiens, UniProt Q02763); assay: Inhibition of TIE2 by virtual HTS assay

Sequence of Vascular endothelial growth factor receptor 2 (P35968 whole entry): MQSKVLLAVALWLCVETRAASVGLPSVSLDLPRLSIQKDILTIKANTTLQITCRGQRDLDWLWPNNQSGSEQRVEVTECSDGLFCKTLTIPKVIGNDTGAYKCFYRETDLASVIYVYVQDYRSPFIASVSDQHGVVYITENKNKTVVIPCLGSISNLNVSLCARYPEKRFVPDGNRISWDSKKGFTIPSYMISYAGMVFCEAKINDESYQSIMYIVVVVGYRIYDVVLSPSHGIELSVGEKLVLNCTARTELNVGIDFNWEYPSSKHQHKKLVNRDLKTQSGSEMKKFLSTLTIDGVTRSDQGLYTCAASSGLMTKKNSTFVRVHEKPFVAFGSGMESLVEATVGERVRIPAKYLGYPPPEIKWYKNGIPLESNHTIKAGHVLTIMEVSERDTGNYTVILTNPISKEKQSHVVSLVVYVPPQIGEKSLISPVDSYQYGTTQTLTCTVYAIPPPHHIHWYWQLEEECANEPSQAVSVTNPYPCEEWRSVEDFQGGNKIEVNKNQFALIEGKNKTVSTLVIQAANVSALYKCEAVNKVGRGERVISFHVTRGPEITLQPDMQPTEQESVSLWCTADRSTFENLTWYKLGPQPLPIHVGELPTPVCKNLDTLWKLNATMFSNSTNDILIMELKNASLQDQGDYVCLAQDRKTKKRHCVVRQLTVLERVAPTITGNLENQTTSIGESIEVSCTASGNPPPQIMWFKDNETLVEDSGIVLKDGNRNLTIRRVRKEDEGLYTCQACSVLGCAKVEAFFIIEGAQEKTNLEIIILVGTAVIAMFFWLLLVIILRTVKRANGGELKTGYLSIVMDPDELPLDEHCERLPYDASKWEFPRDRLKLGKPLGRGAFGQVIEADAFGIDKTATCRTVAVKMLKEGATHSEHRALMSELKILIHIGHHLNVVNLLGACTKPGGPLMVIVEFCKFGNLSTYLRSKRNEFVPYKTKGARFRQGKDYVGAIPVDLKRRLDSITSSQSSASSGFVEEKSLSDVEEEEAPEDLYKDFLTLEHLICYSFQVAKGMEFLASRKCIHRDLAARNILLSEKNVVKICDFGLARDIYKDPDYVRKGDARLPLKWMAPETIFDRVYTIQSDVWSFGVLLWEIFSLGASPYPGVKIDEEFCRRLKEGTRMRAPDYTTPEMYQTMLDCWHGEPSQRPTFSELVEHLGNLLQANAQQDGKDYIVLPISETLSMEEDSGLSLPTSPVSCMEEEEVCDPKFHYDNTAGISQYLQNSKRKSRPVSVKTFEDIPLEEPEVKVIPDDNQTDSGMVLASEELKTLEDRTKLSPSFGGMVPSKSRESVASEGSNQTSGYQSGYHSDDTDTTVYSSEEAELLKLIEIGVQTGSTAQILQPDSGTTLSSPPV
Sequence of Receptor tyrosine-protein kinase erbB-2 (P04626 whole entry): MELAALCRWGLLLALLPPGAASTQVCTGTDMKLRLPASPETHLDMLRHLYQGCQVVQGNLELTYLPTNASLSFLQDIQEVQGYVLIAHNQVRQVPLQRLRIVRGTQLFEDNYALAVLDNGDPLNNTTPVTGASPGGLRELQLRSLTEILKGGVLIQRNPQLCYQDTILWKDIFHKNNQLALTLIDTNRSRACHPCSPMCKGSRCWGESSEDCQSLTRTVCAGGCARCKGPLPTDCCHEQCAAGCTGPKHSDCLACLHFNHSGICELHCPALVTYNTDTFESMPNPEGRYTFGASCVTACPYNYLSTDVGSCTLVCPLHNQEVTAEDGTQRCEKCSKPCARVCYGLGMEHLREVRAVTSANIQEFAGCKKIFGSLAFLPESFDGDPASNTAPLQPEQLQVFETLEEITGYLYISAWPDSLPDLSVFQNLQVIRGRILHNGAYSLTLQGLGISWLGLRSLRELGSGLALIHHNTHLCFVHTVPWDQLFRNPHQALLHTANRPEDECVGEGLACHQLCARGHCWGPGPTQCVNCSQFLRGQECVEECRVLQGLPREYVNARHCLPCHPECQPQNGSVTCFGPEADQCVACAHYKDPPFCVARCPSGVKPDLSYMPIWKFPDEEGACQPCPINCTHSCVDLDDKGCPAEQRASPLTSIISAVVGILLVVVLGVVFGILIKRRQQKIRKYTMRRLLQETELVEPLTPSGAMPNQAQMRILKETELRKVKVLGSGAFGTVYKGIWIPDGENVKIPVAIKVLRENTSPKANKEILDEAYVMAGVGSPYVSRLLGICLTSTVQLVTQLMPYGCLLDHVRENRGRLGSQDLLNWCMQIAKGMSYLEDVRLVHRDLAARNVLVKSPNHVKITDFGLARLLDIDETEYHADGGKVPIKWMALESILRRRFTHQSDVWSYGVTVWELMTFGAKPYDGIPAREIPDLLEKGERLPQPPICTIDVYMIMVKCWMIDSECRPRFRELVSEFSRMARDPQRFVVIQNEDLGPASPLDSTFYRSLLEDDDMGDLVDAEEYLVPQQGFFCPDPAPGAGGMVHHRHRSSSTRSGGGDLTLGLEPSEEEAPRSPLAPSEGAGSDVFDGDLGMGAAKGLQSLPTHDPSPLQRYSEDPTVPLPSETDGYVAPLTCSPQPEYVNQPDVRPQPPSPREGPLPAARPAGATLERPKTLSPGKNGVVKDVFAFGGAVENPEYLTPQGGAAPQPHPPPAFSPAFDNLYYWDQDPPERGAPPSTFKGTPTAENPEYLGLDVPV
Sequence of Insulin receptor (P06213 28-758 limits assumed): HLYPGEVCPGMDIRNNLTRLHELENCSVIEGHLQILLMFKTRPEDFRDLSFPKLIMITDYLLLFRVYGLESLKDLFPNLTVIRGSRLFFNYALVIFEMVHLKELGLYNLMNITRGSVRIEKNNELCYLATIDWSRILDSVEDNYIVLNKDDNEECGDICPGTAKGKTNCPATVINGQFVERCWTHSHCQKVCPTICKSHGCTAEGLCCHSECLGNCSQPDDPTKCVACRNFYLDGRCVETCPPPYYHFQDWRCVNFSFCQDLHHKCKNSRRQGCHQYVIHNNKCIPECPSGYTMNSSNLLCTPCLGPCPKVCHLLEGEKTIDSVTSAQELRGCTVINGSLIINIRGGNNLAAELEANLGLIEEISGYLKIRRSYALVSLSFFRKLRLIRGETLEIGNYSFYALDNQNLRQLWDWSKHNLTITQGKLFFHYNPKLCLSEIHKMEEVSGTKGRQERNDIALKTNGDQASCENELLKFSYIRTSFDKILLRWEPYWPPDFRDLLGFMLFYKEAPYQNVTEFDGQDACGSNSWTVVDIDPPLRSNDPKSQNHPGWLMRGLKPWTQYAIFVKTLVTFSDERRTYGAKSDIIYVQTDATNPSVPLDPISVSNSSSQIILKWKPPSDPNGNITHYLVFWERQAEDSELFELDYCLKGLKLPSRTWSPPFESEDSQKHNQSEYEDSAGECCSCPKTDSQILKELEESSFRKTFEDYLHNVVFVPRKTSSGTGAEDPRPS
Sequence of Insulin receptor (P06213 763-1382 limits assumed): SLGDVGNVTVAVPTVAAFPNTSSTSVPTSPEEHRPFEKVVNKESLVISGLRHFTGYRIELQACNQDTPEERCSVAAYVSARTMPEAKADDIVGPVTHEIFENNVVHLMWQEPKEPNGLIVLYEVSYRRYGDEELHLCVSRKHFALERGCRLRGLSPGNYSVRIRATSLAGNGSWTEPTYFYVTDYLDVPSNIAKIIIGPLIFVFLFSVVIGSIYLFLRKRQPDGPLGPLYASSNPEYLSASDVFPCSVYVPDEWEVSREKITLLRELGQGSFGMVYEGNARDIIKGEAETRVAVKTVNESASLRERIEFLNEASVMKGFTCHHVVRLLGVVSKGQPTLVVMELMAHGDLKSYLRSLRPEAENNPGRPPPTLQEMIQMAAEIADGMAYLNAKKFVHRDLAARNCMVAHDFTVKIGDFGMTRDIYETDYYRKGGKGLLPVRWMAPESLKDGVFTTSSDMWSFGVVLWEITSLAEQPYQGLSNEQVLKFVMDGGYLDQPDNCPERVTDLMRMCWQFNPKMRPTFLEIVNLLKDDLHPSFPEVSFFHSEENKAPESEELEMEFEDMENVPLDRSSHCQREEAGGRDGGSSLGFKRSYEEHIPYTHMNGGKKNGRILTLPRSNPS
Sequence of Proto-oncogene tyrosine-protein kinase Src (P12931 2-536 limits assumed): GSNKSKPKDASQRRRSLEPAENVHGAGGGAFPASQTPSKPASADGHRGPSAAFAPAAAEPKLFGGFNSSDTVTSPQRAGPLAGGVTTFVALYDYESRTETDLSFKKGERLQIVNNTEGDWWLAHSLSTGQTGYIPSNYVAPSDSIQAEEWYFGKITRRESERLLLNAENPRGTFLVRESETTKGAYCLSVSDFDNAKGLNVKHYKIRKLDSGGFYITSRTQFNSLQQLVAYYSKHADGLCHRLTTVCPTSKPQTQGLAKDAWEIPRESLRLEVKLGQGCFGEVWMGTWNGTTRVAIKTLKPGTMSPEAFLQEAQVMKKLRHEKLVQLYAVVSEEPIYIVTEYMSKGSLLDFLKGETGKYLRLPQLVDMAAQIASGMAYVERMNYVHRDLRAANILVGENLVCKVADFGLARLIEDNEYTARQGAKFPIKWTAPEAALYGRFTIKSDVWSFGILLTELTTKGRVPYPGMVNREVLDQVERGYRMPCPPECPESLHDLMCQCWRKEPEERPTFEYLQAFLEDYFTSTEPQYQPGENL
Sequence of Aurora kinase B (Q96GD4 whole entry): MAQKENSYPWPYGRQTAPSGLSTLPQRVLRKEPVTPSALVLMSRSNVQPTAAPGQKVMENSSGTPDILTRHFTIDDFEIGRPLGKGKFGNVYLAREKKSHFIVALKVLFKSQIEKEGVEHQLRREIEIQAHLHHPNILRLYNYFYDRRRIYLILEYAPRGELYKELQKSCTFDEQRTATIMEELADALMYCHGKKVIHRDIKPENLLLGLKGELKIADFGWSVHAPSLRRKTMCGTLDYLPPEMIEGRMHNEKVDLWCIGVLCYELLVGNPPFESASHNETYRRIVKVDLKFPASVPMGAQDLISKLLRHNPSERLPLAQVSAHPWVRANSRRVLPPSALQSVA

| SMILES | IC50 [1] | IC50 [2] | IC50 [3] | IC50 [4] | IC50 [5] | IC50 [6] | IC50 [7] | IC50 [8] | IC50 [9] | IC50 [10] | IC50 [11] |
| --- | --- | --- | --- | --- | --- | --- | --- | --- | --- | --- | --- |
| c1cc(Nc2ncnc3nc[nH]c23)cc(-c2nc3ccccc3s2)c1 | 1.7 µM | 0.84 µM | > 10 µM | > 10 µM | 1.1 µM | > 10 µM | 0.87 µM | 1.2 µM | – | – | – |
| CN1CCN(c2ccnc(Nc3ccc(-c4nc5ccccc5s4)cc3)n2)CC1 | > 10 µM | – | > 10 µM | 0.84 µM | – | > 10 µM | > 10 µM | – | > 10 µM | 5.2 µM | – |
| Cc1cc(Nc2ccnc(Nc3ccc(-c4nc5ccccc5s4)cc3)n2)n[nH]1 | > 10 µM | – | > 10 µM | 0.37 µM | – | 7 µM | > 10 µM | – | – | – | – |
| COc1cc(Nc2nccc(Nc3cc(C)n[nH]3)n2)ccc1-c1nc2ccccc2s1 | > 10 µM | – | > 10 µM | 0.32 µM | – | 3.1 µM | > 10 µM | – | > 10 µM | > 10 µM | – |
| Cc1cc(Nc2cc(Nc3ccc(-c4nc5ccccc5s4)cc3)ccn2)[nH]n1 | > 10 µM | – | > 10 µM | 1.3 µM | – | 1.8 µM | 8.8 µM | – | > 10 µM | 6.5 µM | – |
| CNc1ccnc(Nc2ccc(-c3nc4ccccc4s3)cc2)n1 | – | – | – | 1.5 µM | – | – | – | – | – | – | – |
| CN(C)c1ccnc(Nc2ccc(-c3nc4ccccc4s3)cc2)n1 | > 10 µM | – | > 10 µM | > 10 µM | – | > 10 µM | > 10 µM | – | – | – | – |
| COc1cc(Nc2ncnc3[nH]ccc23)ccc1-c1nc2ccccc2s1 | 0.72 µM | – | > 10 µM | > 10 µM | > 10 µM | > 10 µM | > 10 µM | 3.6 µM | 1.6 µM | > 10 µM | 8.6 µM |
| COc1nc(Nc2ccc(-c3nc4ccccc4s3)cc2)c2cc[nH]c2n1 | – | – | > 10 µM | > 10 µM | 6.4 µM | > 10 µM | 10 µM | 4.4 µM | > 10 µM | > 10 µM | 8.7 µM |
| CNc1cc(Nc2ccc(-c3nc4ccccc4s3)cc2)ccn1 | > 10 µM | – | > 10 µM | > 10 µM | – | > 10 µM | > 10 µM | – | > 10 µM | 6 µM | – |
| CNC(=O)c1cc(Nc2ccc(-c3nc4ccccc4s3)cc2)ccn1 | 2 µM | – | > 10 µM | > 10 µM | – | > 10 µM | 3.6 µM | – | 1.1 µM | > 10 µM | – |
| c1ccc2sc(-c3ccc(Nc4ncnc5ccsc45)cc3)nc2c1 | > 10 µM | – | > 10 µM | 2.8 µM | > 10 µM | 0.72 µM | > 10 µM | > 10 µM | > 10 µM | > 10 µM | > 10 µM |
| COc1cc2ncnc(Nc3ccc(-c4nc5ccccc5s4)c(O)c3)c2cc1OC | 2.2 µM | > 10 µM | > 10 µM | > 10 µM | > 10 µM | 4.2 µM | 6.9 µM | > 10 µM | – | – | – |
| COc1cc2ncnc(Nc3ccc(-c4nc5ccccc5s4)c(OC)c3)c2cc1OC | 0.063 µM | > 10 µM | > 10 µM | > 10 µM | > 10 µM | > 10 µM | > 10 µM | > 10 µM | – | – | – |
| COc1cc2ncnc(Nc3ccc(-c4nc5ccccc5s4)cc3)c2cc1OC | 1.5 µM | > 10 µM | > 10 µM | 0.35 µM | > 10 µM | 0.135 µM | 6.8 µM | > 10 µM | – | – | – |
| Clc1cc(Nc2ncnc3ccsc23)ccc1-c1nc2ccccc2s1 | > 10 µM | – | > 10 µM | > 10 µM | > 10 µM | > 10 µM | > 10 µM | > 10 µM | > 10 µM | > 10 µM | 4.4 µM |
| Fc1cc(-c2nc3ccccc3s2)ccc1Nc1ncnc2ccsc12 | > 10 µM | – | > 10 µM | 4 µM | > 10 µM | 0.29 µM | > 10 µM | > 10 µM | > 10 µM | > 10 µM | 4.1 µM |
| COc1cc(Nc2ccnc3cc(Cl)ccc23)ccc1-c1nc2ccccc2s1 | > 10 µM | > 10 µM | > 10 µM | > 10 µM | > 10 µM | > 10 µM | > 10 µM | > 10 µM | – | – | > 10 µM |
| COc1nc(Nc2ccc(-c3nc4ccccc4s3)c(OC)c2)c2cc[nH]c2n1 | 5.1 µM | – | > 10 µM | > 10 µM | 2.1 µM | > 10 µM | 0.96 µM | 2.9 µM | > 10 µM | 7.7 µM | 2.5 µM |
| COc1cc(Nc2ncnc3nc[nH]c23)ccc1-c1nc2ccccc2s1 | 2.6 µM | – | > 10 µM | 5.8 µM | > 10 µM | > 10 µM | 9.2 µM | > 10 µM | > 10 µM | 3.4 µM | 1.3 µM |
| c1cc(Nc2ncnc3[nH]ccc23)cc(-c2nc3ccccc3s2)c1 | – | > 10 µM | – | > 10 µM | > 10 µM | 6.4 µM | > 10 µM | > 10 µM | – | – | 1.2 µM |
| CNc1nccc(Nc2ccc(-c3nc4ccccc4s3)cc2)n1 | > 10 µM | – | 9.7 µM | > 10 µM | – | > 10 µM | 8.9 µM | – | > 10 µM | 6.9 µM | – |
| COc1cc(Nc2ncnc3ccsc23)ccc1-c1nc2ccccc2s1 | > 10 µM | – | > 10 µM | > 10 µM | > 10 µM | > 10 µM | > 10 µM | > 10 µM | > 10 µM | > 10 µM | > 10 µM |
| CNc1nc(Nc2ccc(-c3nc4ccccc4s3)cc2)c2cc(OC)c(OC)cc2n1 | > 10 µM | > 10 µM | 0.63 µM | > 10 µM | > 10 µM | > 10 µM | > 10 µM | > 10 µM | – | – | > 10 µM |
| COc1cc2ncnc(Nc3ccc(-c4nc5ccccc5s4)cc3C)c2cc1OC | – | > 10 µM | > 10 µM | 4.4 µM | > 10 µM | 3.7 µM | 3.4 µM | > 10 µM | – | – | 0.84 µM |
| c1ccc2sc(-c3ccc(Nc4ncnc5nc[nH]c45)cc3)nc2c1 | 7.8 µM | – | > 10 µM | > 10 µM | > 10 µM | > 10 µM | > 10 µM | > 10 µM | – | – | – |
| c1ccc2sc(-c3ccc(Nc4ncnc5[nH]ccc45)cc3)nc2c1 | 1.3 µM | – | 6.95 µM | 8 µM | 1.5 µM | > 10 µM | 1.2 µM | 1.5 µM | 3.1 µM | 2.1 µM | 1.9 µM |
| COc1cc2nc(Nc3cc(C)[nH]n3)nc(Nc3cccc(-c4nc5ccccc5s4)c3)c2cc1OC | – | – | – | 5.5 µM | – | > 10 µM | – | – | – | – | 4.4 µM |
